In ChEMBL document CHEMBL5360646, “Optimization of M3 Antagonist-PDE4 Inhibitor (MAPI) Dual Pharmacology Molecules for the Treatment of COPD” (J Med Chem, 2023):

Columns and labels:
[1] = target: 3',5'-cyclic-AMP phosphodiesterase 4B (Homo sapiens, UniProt Q07343); test: Inhibition of human recombinant PDE4B2 expressed in baculovirus expression system using cAMP as substrate incubated for 2 hrs by HTRF assay
[2] = target: Muscarinic acetylcholine receptor M3 (Homo sapiens, UniProt P20309); test: Displacement of [3H]N-methylscopolamine chloride from human muscarinic M3 receptor incubated for 2 hrs by radioligand binding assay
Chain of Muscarinic acetylcholine receptor M3 (P20309 whole entry): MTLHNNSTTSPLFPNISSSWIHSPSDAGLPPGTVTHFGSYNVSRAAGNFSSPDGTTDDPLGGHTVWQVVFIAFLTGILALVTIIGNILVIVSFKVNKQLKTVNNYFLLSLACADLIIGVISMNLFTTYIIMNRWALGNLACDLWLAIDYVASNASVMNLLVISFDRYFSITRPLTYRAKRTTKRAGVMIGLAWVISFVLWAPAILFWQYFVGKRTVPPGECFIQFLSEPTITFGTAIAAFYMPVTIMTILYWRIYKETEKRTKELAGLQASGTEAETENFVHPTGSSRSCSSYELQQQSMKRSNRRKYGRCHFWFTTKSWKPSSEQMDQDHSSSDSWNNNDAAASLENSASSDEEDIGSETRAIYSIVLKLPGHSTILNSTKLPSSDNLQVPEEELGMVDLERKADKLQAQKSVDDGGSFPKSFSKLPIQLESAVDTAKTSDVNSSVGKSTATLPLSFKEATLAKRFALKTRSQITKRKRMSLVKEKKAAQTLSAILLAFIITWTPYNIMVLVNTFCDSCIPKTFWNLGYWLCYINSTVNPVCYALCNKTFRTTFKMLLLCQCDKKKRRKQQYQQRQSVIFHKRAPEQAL

Trachea = test: Bronchoconstriction activity in Sprague-Dawley rat trachea assessed as inhibition of carbachol-induced tracheal contraction; format: functional, tissue-based; details: for IC50: Rattus norvegicus, Sprague-Dawley, Trachea
[3] = Antiinflammatory activity against LPS-stimulated human PBMC cells assessed reduction in TNFalpha level incubated for 18 hrs by ELISA analysis; format: functional, cell-based; details: for IC50: Homo sapiens, PBMC, 18 h; for pIC50: pbmc
Rattus norvegicus [4] = test: Anti-bronchospastic activity in carbachol-induced bronchospasm Sprague-Dawley rat model assessed as inhibition of carbachol-induced bronchoconstriction administered IT(Intratracheal) for 1 hr prior to carbachol challenge; format: functional
Rattus norvegicus [5] = test: Anti-bronchospastic activity in carbachol-induced bronchospasm Sprague-Dawley rat model assessed as inhibition of carbachol-induced bronchoconstriction at 10 nmol/kg, IT(Intratracheal) administered 1 hr prior to carbachol challenge; format: functional; set-up: scale not given: the % may be the effect or the level left
Rattus norvegicus [6] = test: Anti-bronchospastic activity in carbachol-induced bronchospasm Sprague-Dawley rat model assessed as inhibition of carbachol-induced bronchoconstriction at 10 nmol/kg, IT(Intratracheal) administered 16 hr prior to carbachol challenge; format: functional; set-up: scale not given: the % may be the effect or the level left
Rattus norvegicus [7] = test: Anti-inflammatory activity against OVA-sensitized Brown-Norway rat airway inflammation model assessed as inhibition of OVA-induced eosinophil influx administered IT(Intratracheal) 2 hrs prior to OVA challenge; format: functional
[8] = Ratio of ED50 for Anti-inflammatory activity against OVA-sensitized Brown-Norway rat airway inflammation model to ED50 for Anti-bronchospastic activity in carbachol-induced bronchospasm Sprague-Dawley rat model; format: functional
[9] = Metabolic stability in human lung S9 fraction assessed as half life at 1 uM and measured upto 60 mins in presence of NADPH by LC-MS/MS analysis; format: ADME, subcellular; details: for half-life at 1 µM: lung S9 fraction; for t1/2: s9, 1 h, 1 µM, 1 h
[10] = Metabolic stability in rat lung S9 fraction assessed as half life at 1 uM and measured upto 60 mins in presence of NADPH by LC-MS/MS analysis; format: ADME, subcellular; details: for t1/2: s9, 1 h, 1 µM, 1 h
[11] = Metabolic stability in human plasma assessed as half life at 5 uM and measured upto 180 mins by HPLC-MS/MS analysis; format: ADME, cell-free
[12] = Metabolic stability in rat plasma assessed as half life at 5 uM and measured upto 180 mins by HPLC-MS/MS analysis; format: ADME, cell-free; details: for t1/2: 3 h, 5 µM
[13] = Metabolic stability in human liver microsomes assessed as intrinsic clerance at 1 uM and measured upto 60 mins by HPLC-MS/MS analysis; format: ADME, Microsome; details: for microsomal CLint at 1 µM: liver microsomes, read-out: CLH; for CLH: microsomes, 1 h, 1 µM
[14] = Metabolic stability in rat liver microsomes assessed as intrinsic clerance at 1 uM and measured upto 60 mins by HPLC-MS/MS analysis; format: ADME, Microsome; details: microsomes, 1 h, 1 µM
Rattus norvegicus [15] = test: Anti-bronchospastic activity in carbachol-induced bronchospasm Sprague-Dawley rat model assessed as inhibition of carbachol-induced bronchoconstriction at 30 nmol/kg, IT(Intratracheal) administered 1 hr prior to carbachol challenge; format: functional; set-up: scale not given: the % may be the effect or the level left
Rattus norvegicus [16] = test: Anti-bronchospastic activity in carbachol-induced bronchospasm Sprague-Dawley rat model assessed as inhibition of carbachol-induced bronchoconstriction at 30 nmol/kg, IT(Intratracheal) administered 16 hr prior to carbachol challenge; format: functional; set-up: scale not given: the % may be the effect or the level left
[17] = Rattus norvegicus, Sprague-Dawley, read-out: ED50

Chain of 3',5'-cyclic-AMP phosphodiesterase 4B (Q07343 whole entry): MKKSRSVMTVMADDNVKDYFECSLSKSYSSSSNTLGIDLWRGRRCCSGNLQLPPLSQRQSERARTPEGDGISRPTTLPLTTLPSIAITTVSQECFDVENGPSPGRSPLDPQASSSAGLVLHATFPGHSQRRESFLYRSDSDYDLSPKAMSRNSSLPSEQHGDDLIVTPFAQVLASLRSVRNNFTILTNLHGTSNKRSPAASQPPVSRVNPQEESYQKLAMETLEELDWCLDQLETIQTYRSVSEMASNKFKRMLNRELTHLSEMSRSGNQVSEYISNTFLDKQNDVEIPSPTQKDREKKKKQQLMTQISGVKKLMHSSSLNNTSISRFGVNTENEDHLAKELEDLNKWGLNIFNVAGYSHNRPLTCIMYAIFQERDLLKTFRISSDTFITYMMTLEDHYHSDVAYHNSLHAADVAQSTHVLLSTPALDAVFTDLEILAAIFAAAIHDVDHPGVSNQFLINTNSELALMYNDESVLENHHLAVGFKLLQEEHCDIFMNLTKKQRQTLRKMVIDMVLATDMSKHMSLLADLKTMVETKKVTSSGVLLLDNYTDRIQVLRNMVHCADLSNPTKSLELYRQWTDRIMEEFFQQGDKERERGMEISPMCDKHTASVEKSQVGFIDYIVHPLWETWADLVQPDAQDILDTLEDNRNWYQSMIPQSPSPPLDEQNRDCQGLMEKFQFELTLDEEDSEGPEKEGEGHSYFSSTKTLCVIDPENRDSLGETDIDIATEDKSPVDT

CS(=O)(=O)N1CCC[C@H]1C(=O)O[C@@H](Cc1c(Cl)c[n+]([O-])cc1Cl)c1ccc(OC(F)F)c(OCC2CC2)c1
IC50 [1]: 0.501 nM

CN(C)C(=O)c1cccc(S(=O)(=O)N2CCC[C@H]2C(=O)O[C@@H](Cc2c(Cl)c[n+]([O-])cc2Cl)c2ccc(OC(F)F)c(OCC3CC3)c2)c1
IC50 [1]: 0.0398 nM

COc1cc(C(=O)O[C@@H](Cc2c(Cl)c[n+]([O-])cc2Cl)c2ccc(OC)c(OC)c2)ccc1CNC(C(=O)O[C@H]1CN2CCC1CC2)c1ccccc1 (some centres undefined)
Ki [2]: 0.631 nM
IC50 [1]: 5.01 nM

COc1ccc([C@H](Cc2c(Cl)c[n+]([O-])cc2Cl)OC(=O)c2ccc(CNC(C(=O)O[C@H]3CN4CCC3CC4)c3ccccc3)cc2)cc1OC (some centres undefined)
Ki [2]: 0.251 nM
IC50 [1]: 2.51 nM

CCOc1cc([C@H](Cc2c(Cl)c[n+]([O-])cc2Cl)OC(=O)c2ccc(CN[C@](CO)(C(=O)O[C@H]3CN4CCC3CC4)c3ccccc3)s2)ccc1OC
Ki [2]: 0.251 nM
IC50 (Trachea): 3.98 nM
IC50 [1]: 0.631 nM
IC50 [3]: 0.398 nM
ED50 (Rattus norvegicus [4]; [17]): 0.0031 µmol/kg
Activity (Rattus norvegicus [5]): 89%
Activity (Rattus norvegicus [6]): 82%
ED50 (Rattus norvegicus [7]): 0.024 µmol/kg
Ratio ED50 [8]: 7.7

CCOc1cc([C@H](Cc2c(Cl)cncc2Cl)OC(=O)c2ccc(CN[C@@](CO)(C(=O)O[C@H]3CN4CCC3CC4)c3ccccc3)s2)ccc1OC
Ki [2]: 3.16 nM
IC50 [1]: 7.94 nM

CCOc1cc([C@@H](Cc2c(Cl)c[n+]([O-])cc2Cl)OC(=O)c2ccc(CN[C@@](CO)(C(=O)O[C@H]3CN4CCC3CC4)c3ccccc3)s2)ccc1OC
Ki [2]: 25.1 nM
IC50 [1]: 6.31 nM

CCOc1cc(C(=O)O[C@@H](Cc2c(Cl)c[n+]([O-])cc2Cl)c2ccc(OC)c(OC)c2)ccc1CNC(C(=O)O[C@H]1CN2CCC1CC2)c1ccccc1 (some centres undefined)
Ki [2]: 1 nM
IC50 [1]: 7.94 nM

COc1ccc([C@H](Cc2c(Cl)c[n+]([O-])cc2Cl)OC(=O)c2ccc(CNC(C(=O)O[C@H]3CN4CCC3CC4)c3ccccc3)c(OCC3CC3)c2)cc1OC (some centres undefined)
Ki [2]: 2.51 nM
IC50 [1]: 1 nM

COc1ccc([C@H](Cc2c(Cl)c[n+]([O-])cc2Cl)OC(=O)c2ccc(CNC(C)(C(=O)O[C@H]3CN4CCC3CC4)c3ccccc3)s2)cc1OC (stereo in doubt; 1f)
Ki [2]: 0.2 nM
IC50 (Trachea): 2.51 nM
IC50 [1]: 3.98 nM
IC50 [3]: 15.8 nM
half-life at 1 µM [9]: 1.83 h
t1/2 [10]: 4.67 h
half-life at 5 µM [11]: 2.9 h
half-life at 5 µM [12]: 1.43 h
microsomal CLint at 1 µM [13]: 470 µL/min/mg
CLH [14]: 481 µL/min/mg

COc1ccc([C@H](Cc2c(Cl)c[n+]([O-])cc2Cl)OC(=O)c2ccc(CNC(C)(C(=O)O[C@H]3CN4CCC3CC4)c3ccccc3)s2)cc1OC (stereo in doubt; 1s)
Ki [2]: 0.158 nM
pIC50 (Trachea): 8.5
IC50 [1]: 1.26 nM
pIC50 [3]: 7.9
t1/2 [9]: 2.08 h
t1/2 [10]: 1.82 h
t1/2 ([11]; 3 h, 5 µM): 3.18 h
t1/2 [12]: 0.983 h
CLH [13]: 481 µL/min/mg
CLH [14]: 48 µL/min/mg

CCC(NCc1ccc(C(=O)O[C@@H](Cc2c(Cl)c[n+]([O-])cc2Cl)c2ccc(OC)c(OC)c2)s1)(C(=O)O[C@H]1CN2CCC1CC2)c1ccccc1 (stereo in doubt; 2f)
Ki [2]: 0.316 nM
IC50 (Trachea): 25.1 nM
IC50 [1]: 2.51 nM
IC50 [3]: 2.51 nM

CCC(NCc1ccc(C(=O)O[C@@H](Cc2c(Cl)c[n+]([O-])cc2Cl)c2ccc(OC)c(OC)c2)s1)(C(=O)O[C@H]1CN2CCC1CC2)c1ccccc1 (stereo in doubt; 2s)
Ki [2]: 3.98 nM
IC50 [1]: 3.16 nM

COc1ccc([C@H](Cc2c(Cl)c[n+]([O-])cc2Cl)OC(=O)c2ccc(CNC(CO)(C(=O)O[C@H]3CN4CCC3CC4)c3ccccc3)s2)cc1OC (stereo in doubt; 3f)
Ki [2]: 0.631 nM
pIC50 (Trachea): 7.4
IC50 [1]: 0.631 nM
IC50 [3]: 0.501 nM
half-life at 1 µM [9]: 1.32 h
half-life at 1 µM ([10]; lung S9 fraction): 1.37 h
half-life at 5 µM [11]: > 4 h
half-life at 5 µM [12]: 2.1 h
microsomal CLint at 1 µM [13]: 331 µL/min/mg
CLH [14]: 32 µL/min/mg
ED50 (Rattus norvegicus [4]): 0.0029 µmol/kg
Activity (Rattus norvegicus [15]): 88%
Activity (Rattus norvegicus [16]): 28%

COc1ccc([C@H](Cc2c(Cl)c[n+]([O-])cc2Cl)OC(=O)c2ccc(CNC(CO)(C(=O)O[C@H]3CN4CCC3CC4)c3ccccc3)s2)cc1OC (stereo in doubt; 3s)
Ki [2]: 0.2 nM
pIC50 (Trachea): 8.4
IC50 [1]: 0.501 nM
pIC50 [3]: 9.2
t1/2 [9]: 1.3 h
t1/2 [10]: 1.38 h
t1/2 [12]: 1.95 h
CLH [13]: 196 µL/min/mg
CLH [14]: 189 µL/min/mg
ED50 (Rattus norvegicus [4]): 0.0008 µmol/kg
Activity (Rattus norvegicus [5]): 81%
Activity (Rattus norvegicus [6]): 82%
ED50 (Rattus norvegicus [7]): 0.016 µmol/kg
Ratio ED50 [8]: 20

COCC(NCc1ccc(C(=O)O[C@@H](Cc2c(Cl)c[n+]([O-])cc2Cl)c2ccc(OC)c(OC)c2)s1)(C(=O)O[C@H]1CN2CCC1CC2)c1ccccc1 (stereo in doubt; 4f)
Ki [2]: 3.16 nM
IC50 [1]: 1 nM

COCC(NCc1ccc(C(=O)O[C@@H](Cc2c(Cl)c[n+]([O-])cc2Cl)c2ccc(OC)c(OC)c2)s1)(C(=O)O[C@H]1CN2CCC1CC2)c1ccccc1 (stereo in doubt; 4s)
Ki [2]: 5.01 nM
IC50 [1]: 1.58 nM

COc1ccc([C@H](Cc2c(Cl)c[n+]([O-])cc2Cl)OC(=O)c2ccc(CNC(CO)(C(=O)O[C@H]3CN4CCC3CC4)c3ccccc3)c(OCC3CC3)c2)cc1OC (stereo in doubt; 9f)
Ki [2]: 31.6 nM
IC50 [1]: 0.501 nM

COc1ccc([C@H](Cc2c(Cl)c[n+]([O-])cc2Cl)OC(=O)c2ccc(CNC(CO)(C(=O)O[C@H]3CN4CCC3CC4)c3ccccc3)c(OCC3CC3)c2)cc1OC (stereo in doubt; 9s)
Ki [2]: > 50.1 nM
IC50 [1]: 0.794 nM

COc1ccc([C@H](Cc2c(Cl)c[n+]([O-])cc2Cl)OC(=O)c2ccc(CNC(CO)(C(=O)O[C@H]3CN4CCC3CC4)c3ccccc3)s2)cc1OCC1CC1 (stereo in doubt; 11f)
Ki [2]: 0.398 nM
pIC50 (Trachea): 7
IC50 [1]: 0.794 nM
IC50 [3]: 1.58 nM
ED50 (Rattus norvegicus [4]; [17]): 0.0079 µmol/kg
Activity (Rattus norvegicus [15]): 80%

COc1ccc([C@H](Cc2c(Cl)c[n+]([O-])cc2Cl)OC(=O)c2ccc(CNC(CO)(C(=O)O[C@H]3CN4CCC3CC4)c3ccccc3)s2)cc1OCC1CC1 (stereo in doubt; 11s)
Ki [2]: 0.251 nM
pIC50 (Trachea): 7.8
IC50 [1]: 1.26 nM
pIC50 [3]: 8.5
